The nature of data set [1]: Stability in aqueous media (PBS pH 7.4). To be noted: phosphate buffer solution (PBS); PBS pH 7.4, 37° C., samples at T=0, 4, 24, 96 h; read-out: Stability grading (t1/2). Also on record: unit not given here. Format: physicochemical. An excerpt: LC/MS data was collected for compound identity.
In data set [2] the target is T1, GnRHR (Homo sapiens, UniProt P30968).
T1 construct: host or cells: CHO-K1 (CHO-K1/GnRHR/Ga15)
T1 sequence (P30968 1-328): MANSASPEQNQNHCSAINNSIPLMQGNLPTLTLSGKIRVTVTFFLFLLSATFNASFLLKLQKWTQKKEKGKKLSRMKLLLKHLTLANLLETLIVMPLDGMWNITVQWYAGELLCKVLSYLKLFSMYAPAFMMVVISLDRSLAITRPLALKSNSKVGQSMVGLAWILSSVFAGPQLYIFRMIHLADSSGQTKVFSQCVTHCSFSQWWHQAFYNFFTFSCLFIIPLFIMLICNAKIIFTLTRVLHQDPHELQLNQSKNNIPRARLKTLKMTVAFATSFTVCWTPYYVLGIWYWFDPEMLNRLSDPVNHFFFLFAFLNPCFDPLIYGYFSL
Briefly: Calcium assay in CHO-K1 cells (Genscript), FLIPR. Format: cell-based. The conditions noted are these: CHO-K1/GnRHR/Ga15 cells, relative to agonist control, read-out: GNRHR Stimulation at 1 μM. The method, then:
Test article sample solutions were dissolved in HBSS buffer (with 20 mM HEPES buffer, pH 7.4) to form the 5× working solution. FLIPR® Calcium 4 assay kit from Molecular devices (R8141) was used as required. In brief, CHO-K1 cells expressing GnRHR (CHO-K1/GnRHR/Ga15, Genscript accession NM_000406) were respectively cultured in the 10-cm dishes and maintained at 37° C./5% CO2. CHO-K1 cells expressing GNRHR were respectively seeded in a 384-well black-wall, clear-bottom plate at a density of 15,000 cells per well in 20 μl of growth medium about 18 hours prior to the day of experiment and maintained at 37° C./5% CO2. Then, 20 μl of dye loading solution was added into the wells and the plates were subsequently placed into a 37° C. incubator for 60 minutes, followed by a 15 minutes' incubation at room temperature. At last, 10 μl of compounds or control agonist were added into respective wells of the assay plate during reading in FLIPR. The plate containing 5× compound and control agonist solution was placed in FLIPR. Solutions were added into the cell plate automatically at the 20 seconds and the fluorescence signal was monitored for an additional 100 seconds (21 sec to 120 sec.). Data were recorded by ScreenWorks (version 3.1) as FMD files with FLIPR and stored on the GenScript computer network for off-line analysis. Data acquisition and analyses was performed using ScreenWorks (version 3.1) program and exported to Excel. The average value of the first 20 seconds' reading was calculated as the baseline and the relative fluorescent units (ΔRFU) intensity values were calculated by subtracting the average value of baseline from the maximum fluorescent units (21 s to 120 s).
The % Stimulation was calculated with the following equation: % Stimulation=(ΔRFUCompound−ΔRFUBackground)/(ΔRFUAgonist control−ΔRFUBackground)×100
Dose response curves were fitted with four-parameter-logistic-equation by the software GraphPad Prism 6.
Equation: four parameter logistic equation. Y=Bottom+(Top-Bottom)/(1+10^((Log EC50−X)×Hillslope))
X is the logarithm of concentration. Y is the response.

The results in this text go back to patent US11434258B2, “Compounds (immunorhelins)” (ISR IMMUNE SYSTEM REGULATION HOLDING AB (PUBL), priority 2017, dated 2022).

Non-standard residues stand in square brackets, D forms with d. Residues, ends and D or L forms follow the SMILES beside them. *: point of attachment. dHis(τ-Bn) = N[C@H](Cc1cn(Cc2ccccc2)cn1)C(=O)O; d2Nal = N[C@H](Cc1ccc2ccccc2c1)C(=O)O; pGlu = O=C1CC[C@@H](C(=O)O)N1; tBu = CC(C)(C)*

Take `CCNC(=O)[C@@H]1CCCN1C(=O)[C@H](Cc1ccc(O)cc1)NC(=O)[C@H](CC(C)C)NC(=O)[C@@H](Cc1cn(Cc2ccccc2)cn1)NC(=O)[C@H](Cc1ccc(O)cc1)NC(=O)[C@H](CO)NC(=O)[C@H](Cc1c[nH]c2ccccc12)NC(=O)[C@H](Cc1c[nH]cn1)NC(=O)[C@@H]1CCC(=O)N1` [Compound 59, pGlu-His-Trp-Ser-Tyr-D-Bhi-Leu-Tyr-Pro-NHEt] ([pGlu]HWSY[dHis(τ-Bn)]LYP-NHEt): the half-life at 0.2 mg/ml in data set [1] is under 96. Also, the activation at 1 µM in data set [2] was determined as 85%. Regarding `CCNC(=O)[C@@H]1CCCN1C(=O)[C@H](CCCNC(=N)N)NC(=O)[C@H](CC(C)C)NC(=O)[C@@H](COC(C)(C)C)NC(=O)[C@H](Cc1ccc(O)cc1)NC(=O)[C@H](CO)NC(=O)[C@H](Cc1c[nH]c2ccccc12)NC(=O)[C@H](Cc1cnc[nH]1)NC(=O)[C@@H]1CCC(=O)N1` [Buserelin, reference compound], the activation at 1 µM in data set [2] was determined as 94%. Regarding `CCNC(=O)[C@@H]1CCCN1C(=O)[C@H](Cc1ccc(O)cc1)NC(=O)[C@H](Cc1c[nH]c2ccccc12)NC(=O)[C@@H](COC(C)(C)C)NC(=O)[C@H](Cc1c[nH]cn1)NC(=O)[C@H](CO)NC(=O)[C@H](Cc1c[nH]c2ccccc12)NC(=O)[C@H](Cc1c[nH]cn1)NC(=O)[C@@H]1CCC(=O)N1` [Compound 13, pGlu-His-Trp-Ser-His-D-Ser(tBu)-Trp-Tyr-Pro-NHEt] ([pGlu]HWSH[dS](tBu)WYP-NHEt), the half-life at 0.2 mg/ml in data set [1] is over 96. The activation at 1 µM in data set [2] was 87%.

Regarding `CC(C)C[C@H](NC(=O)[C@@H](Cc1ccc2ccccc2c1)NC(=O)[C@H](Cc1ccc(O)cc1)NC(=O)[C@H](CO)NC(=O)[C@H](Cc1c[nH]c2ccccc12)NC(=O)[C@H](Cc1c[nH]cn1)NC(=O)[C@@H]1CCC(=O)N1)C(=O)N[C@@H](Cc1ccc(O)cc1)C(=O)N1CCC[C@H]1C(=O)NCC(N)=O` [Compound 25, pGlu-His-Trp-Ser-Tyr-D-Nal-Leu-Tyr-Pro-Gly-amide] ([pGlu]HWSY[d2Nal]LYPG-NH2), the half-life at 0.2 mg/ml in data set [1] was under 96. For the same molecule, in data set [2], the activation at 1 µM was 82%. For the molecule `NC(=O)CNC(=O)[C@@H]1CCCN1C(=O)[C@H](Cc1ccc(O)cc1)NC(=O)[C@H](Cc1c[nH]c2ccccc12)NC(=O)[C@@H](Cc1c[nH]c2ccccc12)NC(=O)[C@H](Cc1c[nH]cn1)NC(=O)[C@H](CO)NC(=O)[C@H](Cc1c[nH]c2ccccc12)NC(=O)[C@H](Cc1c[nH]cn1)NC(=O)[C@@H]1CCC(=O)N1` [Compound 65, pGlu-His-Trp-Ser-His-D-Trp-Trp-Tyr-Pro-Gly-amide] ([pGlu]HWSH[dW]WYPG-NH2), in data set [1], the half-life at 0.2 mg/ml is over 96. In data set [2], the activation at 1 µM was determined as 72%. As for `CCNC(=O)[C@@H]1CCCN1C(=O)[C@H](Cc1ccc(O)cc1)NC(=O)[C@H](CC(C)C)NC(=O)[C@@H](CC(C)C)NC(=O)[C@H](Cc1ccc(O)cc1)NC(=O)[C@H](CO)NC(=O)[C@H](Cc1c[nH]c2ccccc12)NC(=O)[C@H](Cc1c[nH]cn1)NC(=O)[C@@H]1CCC(=O)N1` [Compound 45, pGlu-His-Trp-Ser-Tyr-D-Leu-Leu-Tyr-Pro-NHEt] ([pGlu]HWSY[dL]LYP-NHEt), the half-life at 0.2 mg/ml in data set [1] is over 96. In addition, in data set [2], the activation at 1 µM was found to be 105%.

Regarding `CCNC(=O)[C@@H]1CCCN1C(=O)[C@H](CCCNC(=N)N)NC(=O)[C@H](Cc1c[nH]c2ccccc12)NC(=O)[C@@H](Cc1cn(Cc2ccccc2)cn1)NC(=O)[C@H](Cc1c[nH]cn1)NC(=O)[C@H](CO)NC(=O)[C@H](Cc1c[nH]c2ccccc12)NC(=O)[C@H](Cc1c[nH]cn1)NC(=O)[C@@H]1CCC(=O)N1` [Compound 60, pGlu-His-Trp-Ser-His-D-Bhi-Trp-Arg-Pro-NHEt] ([pGlu]HWSH[dHis(τ-Bn)]WRP-NHEt), in data set [1], the half-life at 0.2 mg/ml is over 96. Also, the activation at 1 µM in data set [2] was 102%.

Take `CCNC(=O)[C@@H]1CCCN1C(=O)[C@H](Cc1ccc(O)cc1)NC(=O)[C@H](Cc1c[nH]c2ccccc12)NC(=O)[C@@H](CC(C)C)NC(=O)[C@H](Cc1ccc(O)cc1)NC(=O)[C@H](CO)NC(=O)[C@H](Cc1c[nH]c2ccccc12)NC(=O)[C@H](Cc1c[nH]cn1)NC(=O)[C@@H]1CCC(=O)N1` [Compound 49, pGlu-His-Trp-Ser-Tyr-D-Leu-Trp-Tyr-Pro-NHEt] ([pGlu]HWSY[dL]WYP-NHEt): the half-life at 0.2 mg/ml in data set [1] is over 96. Further, in data set [2], the activation at 1 µM worked out at 77%. The like results for `CCNC(=O)[C@@H]1CCCN1C(=O)[C@H](Cc1ccc(O)cc1)NC(=O)[C@H](CC(C)C)NC(=O)[C@@H](CC(C)C)NC(=O)[C@H](Cc1c[nH]cn1)NC(=O)[C@H](CO)NC(=O)[C@H](Cc1c[nH]c2ccccc12)NC(=O)[C@H](Cc1c[nH]cn1)NC(=O)[C@@H]1CCC(=O)N1` [Compound 48, pGlu-His-Trp-Ser-His-D-Leu-Leu-Tyr-Pro-NHEt] ([pGlu]HWSH[dL]LYP-NHEt) were, in that order, over 96 and 118%.

As for `CC(C)C[C@H](NC(=O)[C@@H](Cc1c[nH]c2ccccc12)NC(=O)[C@H](Cc1ccc(O)cc1)NC(=O)[C@H](CO)NC(=O)[C@H](Cc1c[nH]c2ccccc12)NC(=O)[C@H](Cc1c[nH]cn1)NC(=O)[C@@H]1CCC(=O)N1)C(=O)N[C@@H](Cc1ccc(O)cc1)C(=O)N1CCC[C@H]1C(=O)NCC(N)=O` [Compound 14, pGlu-His-Trp-Ser-Tyr-D-Trp-Leu-Tyr-Pro-Gly-amide] ([pGlu]HWSY[dW]LYPG-NH2), the half-life at 0.2 mg/ml in data set [1] was over 96. Moreover, in data set [2], the activation at 1 µM is 78%. On the same counts, the results for `CCNC(=O)[C@@H]1CCCN1C(=O)[C@H](CCCNC(=N)N)NC(=O)[C@H](Cc1c[nH]c2ccccc12)NC(=O)[C@@H](COC(C)(C)C)NC(=O)[C@H](Cc1ccc(O)cc1)NC(=O)[C@H](CO)NC(=O)[C@H](Cc1c[nH]c2ccccc12)NC(=O)[C@H](Cc1c[nH]cn1)NC(=O)[C@@H]1CCC(=O)N1` [Compound 8, pGlu-His-Trp-Ser-Tyr-D-Ser(tBu)-Trp-Arg-Pro-NHEt] ([pGlu]HWSY[dS](tBu)WRP-NHEt) are over 96 and 86%.

Turning to `CC(C)C[C@H](NC(=O)[C@@H](COC(C)(C)C)NC(=O)[C@H](Cc1ccc(O)cc1)NC(=O)[C@H](CO)NC(=O)[C@H](Cc1c[nH]c2ccccc12)NC(=O)[C@H](Cc1cnc[nH]1)NC(=O)[C@@H]1CCC(=O)N1)C(=O)N[C@@H](CCCNC(=N)N)C(=O)N1CCC[C@H]1C(=O)NNC(N)=O` [Goserelin], in data set [2], the activation at 1 µM is 99%.

Consider `CC(C)C[C@H](NC(=O)CNC(=O)[C@H](Cc1ccc(O)cc1)NC(=O)[C@H](CO)NC(=O)[C@H](Cc1c[nH]c2ccccc12)NC(=O)[C@H](Cc1cnc[nH]1)NC(=O)[C@@H]1CCC(=O)N1)C(=O)N[C@@H](CCCNC(=N)N)C(=O)N1CCC[C@H]1C(=O)NCC(N)=O` [Gonadorelin, reference compound], for which the activation at 1 µM in data set [2] is 102%.

For the molecule `CCNC(=O)[C@@H]1CCCN1C(=O)[C@H](CCCNC(=N)N)NC(=O)[C@H](CC(C)C)NC(=O)[C@@H](CC(C)C)NC(=O)[C@H](Cc1ccc(O)cc1)NC(=O)[C@H](CO)NC(=O)[C@H](Cc1c[nH]c2ccccc12)NC(=O)[C@H](Cc1c[nH]cn1)NC(=O)[C@@H]1CCC(=O)N1` [Leuprorelin, reference compound], the activation at 1 µM in data set [2] is 107%. Same read-out and setting: the result for `CC(C)C[C@H](NC(=O)[C@@H](Cc1ccc2ccccc2c1)NC(=O)[C@H](Cc1ccc(O)cc1)NC(=O)[C@H](CO)NC(=O)[C@H](Cc1c[nH]c2ccccc12)NC(=O)[C@H](Cc1c[nH]cn1)NC(=O)[C@@H]1CCC(=O)N1)C(=O)N[C@@H](CCCNC(=N)N)C(=O)N1CCC[C@H]1C(=O)NCC(N)=O` [Nafarelin, reference compound] reads 100%.
